The record followed here is US20210205264A1, “USE OF DELTA-TOCOTRIENOL FOR TREATING CANCER” (H. LEE MOFFITT CANCER CENTER & RESEARCH INSTITUTE INC., priority 2018, published 2021).

The target in the test is T1, hCAS (Homo sapiens, UniProt P55060).
T1 construct: endogenous in cells; host or cells: MiaPaCa-2 human pancreatic cancer cells
T1 sequence (P55060 1-971): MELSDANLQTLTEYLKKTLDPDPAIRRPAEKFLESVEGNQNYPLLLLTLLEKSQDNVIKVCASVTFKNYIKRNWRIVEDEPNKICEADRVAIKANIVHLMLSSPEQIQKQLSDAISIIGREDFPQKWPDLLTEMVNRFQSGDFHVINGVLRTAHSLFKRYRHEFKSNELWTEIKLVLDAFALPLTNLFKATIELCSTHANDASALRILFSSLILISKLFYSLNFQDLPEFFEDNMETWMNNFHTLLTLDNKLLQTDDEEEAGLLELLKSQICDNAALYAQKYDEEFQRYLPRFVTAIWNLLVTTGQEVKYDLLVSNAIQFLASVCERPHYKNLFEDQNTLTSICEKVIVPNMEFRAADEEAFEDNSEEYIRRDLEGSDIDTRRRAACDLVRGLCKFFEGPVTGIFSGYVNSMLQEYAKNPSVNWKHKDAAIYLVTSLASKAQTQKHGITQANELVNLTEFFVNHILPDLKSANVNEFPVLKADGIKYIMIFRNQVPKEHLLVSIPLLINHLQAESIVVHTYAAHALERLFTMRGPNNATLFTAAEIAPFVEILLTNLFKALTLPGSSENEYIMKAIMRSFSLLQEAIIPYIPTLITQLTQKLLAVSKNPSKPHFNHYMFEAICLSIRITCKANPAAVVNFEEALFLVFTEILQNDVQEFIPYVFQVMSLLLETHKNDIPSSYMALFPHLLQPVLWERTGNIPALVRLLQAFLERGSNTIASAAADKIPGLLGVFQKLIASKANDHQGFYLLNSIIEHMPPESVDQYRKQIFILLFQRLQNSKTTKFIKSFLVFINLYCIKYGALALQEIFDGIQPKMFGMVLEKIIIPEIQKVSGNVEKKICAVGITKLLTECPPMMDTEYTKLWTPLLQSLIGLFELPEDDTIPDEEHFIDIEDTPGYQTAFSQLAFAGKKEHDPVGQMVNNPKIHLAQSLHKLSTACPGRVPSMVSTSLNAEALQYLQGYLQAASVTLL
In words: Streptavidin bead capture of hCAS from treated MiaPaCa-2 cells. It counts as binding. The note with it: derived from biotinylated probes. The method, then: To confirm that δ-T3 binds to hCAS in intact cells, biotinylated δ-T3 (B-δ-T3) was prepared by chemically coupling the —OH group of δ-T3 to the —COOH of biotin using a PEG-iodoactamide linker (FIG. 18).
MiaPaCa-2 human pancreatic cancer cells were treated for 24 hours with biotin alone (B), B-δ-T3 or B-TOCOPH. The cells were then lysed, and the lysates incubated with streptavidin beads, and the captured proteins processed for Western blotting.

As to `CC(C)=CCC/C(C)=C/CC/C(C)=C/CC[C@]1(C)CCc2cc(O)cc(C)c2O1` [d-T3, δ-tocotrienol], the “binds hCAS in intact pancreatic cancer cells” value is given as “binds hCAS”.
